Experimental data as given in US8802597B2, “Herbicidal pyrimidines” (E I du Pont de Nemours and Company, priority 2003, dated 2014).
Like-named read-outs stand apart in the source and are kept apart here.

How the values were obtained:
Format in all cases: in vivo
[1] = tested on: Surinam grass (Brachiaria decumbens); test: Test B pre/postemergence; conditions: Urochloa decumbens; for pest or weed control at 125 g/ha: 125 g ai/ha; for pest or weed control at 500 g/ha: 500 g ai/ha
Outline: (§1)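 Greenhouse whole-plant test; surfactant-containing non-phytotoxic solvent formulation; pre- and postemergence applications made simultaneously; post plants 2–18 cm, 1- to 4-leaf; visual scoring at 13–15 days on 0–100 scale relative to controls.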

[2] = tested on: barnyardgrass (Echinochloa crus-galli); test: Test B pre/postemergence; conditions: Echinochloa crus-galli; for pest or weed control at 125 g/ha: 125 g ai/ha; for pest or weed control at 500 g/ha: 500 g ai/ha
Outline: as §1

[3] = tested on: cocklebur (Xanthium strumarium); test: Test B pre/postemergence; conditions: Xanthium strumarium; for pest or weed control at 125 g/ha: 125 g ai/ha; for pest or weed control at 500 g/ha: 500 g ai/ha
Outline: as §1

corn (Zea mays) = test: Test B pre/postemergence; conditions: Zea mays
Outline: as §1

[4] = tested on: crabgrass (Digitaria sanguinalis); test: Test B pre/postemergence; conditions: Digitaria sanguinalis; for pest or weed control at 125 g/ha: 125 g ai/ha; for pest or weed control at 500 g/ha: 500 g ai/ha
Outline: as §1

[5] = tested on: giant foxtail (Setaria faberii); test: Test B pre/postemergence; conditions: Setaria faberi; for pest or weed control at 125 g/ha: 125 g ai/ha; for pest or weed control at 500 g/ha: 500 g ai/ha
Outline: as §1

[6] = tested on: lambsquarters (Chenopodium album); test: Test B pre/postemergence; conditions: Chenopodium album; for pest or weed control at 125 g/ha: 125 g ai/ha; for pest or weed control at 500 g/ha: 500 g ai/ha
Outline: as §1

[7] = tested on: morningglory (Ipomoea coccinea); test: Test B pre/postemergence; conditions: Ipomoea; for pest or weed control at 125 g/ha: 125 g ai/ha; for pest or weed control at 500 g/ha: 500 g ai/ha
Outline: as §1

[8] = tested on: pigweed (Amaranthus retroflexus); test: Test B pre/postemergence; conditions: Amaranthus retroflexus; for pest or weed control at 125 g/ha: 125 g ai/ha; for pest or weed control at 500 g/ha: 500 g ai/ha
Outline: as §1

[9] = tested on: velvetleaf (Abutilon theophrasti); test: Test B pre/postemergence; conditions: Abutilon theophrasti; for pest or weed control at 125 g/ha: 125 g ai/ha; for pest or weed control at 500 g/ha: 500 g ai/ha
Outline: as §1

[10] = tested on: wheat (Triticum aestivum); test: Test B pre/postemergence; conditions: Triticum aestivum; for plant injury at 125 g/ha: 125 g ai/ha; for plant injury at 500 g/ha: 500 g ai/ha
Outline: as §1

[11] = tested on: blackgrass (Alopecurus myosuroides); test: Test B postemergence; conditions: Alopecurus myosuroides, post-emergence
Outline: as §1

wild oat (Avena fatua) = test: Test B postemergence; conditions: Avena fatua, post-emergence
Outline: as §1

[12] = tested on: barnyardgrass (Echinochloa crus-galli); test: Test B flooded paddy test; conditions: Echinochloa crus-galli, Flood, 1000 g ai/ha; scale 0 (no effect) to 100 (complete control); read-out: Plant response rating, Barnyardgrass
Outline: (§2)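 Plants were grown to the 2-leaf stage before treatment, then kept in a greenhouse for 13 to 15 days. Injury was rated visually against untreated controls on a 0 to 100 scale, where 0 is no effect and 100 is complete control.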

[13] = tested on: duck salad (Heteranthera limosa); test: Test B flooded paddy test; conditions: Heteranthera limosa, Flood, 1000 g ai/ha; scale 0 to 100; read-out: Plant response rating, Ducksalad
Outline: as §2

rice (Oryza sativa) = test: Test B flooded paddy test; conditions: Oryza sativa, Flood, 1000 g ai/ha; scale 0 to 100; read-out: Plant response rating, Rice
Outline: as §2

[14] = tested on: umbrella sedge (Cyperus difformis); test: Test B flooded paddy test; conditions: Cyperus difformis, Flood, 1000 g ai/ha; scale 0 to 100; read-out: Plant response rating, Sedge, Umbrella
Outline: as §2

Structure (SMILES): COC(=O)c1nc(-c2ccccc2)nc(N)c1Br [Compound 23]
- pest or weed control at 125 g/ha ([1]; post-emergence, Postemergence, scale 0 to 100 (0 no effect, 100 complete control), read-out: Surinam Grass plant response rating): 0%
- pest or weed control at 500 g/ha ([1]; post-emergence, Postemergence, scale 0 to 100, read-out: Plant response rating, Surinam Grass): 10%
- pest or weed control at 125 g/ha ([1]; pre-emergence, Preemergence, scale 0 to 100 (0 no effect, 100 complete control), read-out: Plant response rating, Surinam Grass): 0%
- pest or weed control at 500 g/ha ([1]; pre-emergence, Preemergence, scale 0 to 100 (0 no effect, 100 complete control), read-out: Surinam Grass plant response rating): 0%
- pest or weed control at 125 g/ha ([2]; post-emergence, Postemergence, scale 0 to 100 (0 no effect, 100 complete control), read-out: Barnyardgrass plant response rating): 0%
- pest or weed control at 500 g/ha ([2]; post-emergence, Postemergence, scale 0 to 100, read-out: Plant response rating, Barnyardgrass): 0%
- pest or weed control at 125 g/ha ([2]; pre-emergence, Preemergence, scale 0 to 100 (0 no effect, 100 complete control), read-out: Plant response rating, Barnyardgrass): 0%
- pest or weed control at 500 g/ha ([2]; pre-emergence, Preemergence, scale 0 to 100 (0 no effect, 100 complete control), read-out: Barnyardgrass plant response rating): 0%
- pest or weed control at 125 g/ha ([3]; post-emergence, Postemergence, scale 0 to 100 (0 no effect, 100 complete control), read-out: Cocklebur plant response rating): 30%
- pest or weed control at 500 g/ha ([3]; post-emergence, Postemergence, scale 0 to 100, read-out: Plant response rating, Cocklebur): 90%
- pest or weed control at 125 g/ha ([3]; pre-emergence, Preemergence, scale 0 to 100 (0 no effect, 100 complete control), read-out: Plant response rating, Cocklebur): 0%
- pest or weed control at 500 g/ha ([3]; pre-emergence, Preemergence, scale 0 to 100 (0 no effect, 100 complete control), read-out: Cocklebur plant response rating): 10%
- plant injury at 125 g/ha (corn (Zea mays); post-emergence, Postemergence, 125 g ai/ha, scale 0 to 100 (0 no effect, 100 complete control), read-out: Corn plant response rating): 0%
- Corn plant response rating (crop injury, 0 = no effect, 100 = complete kill) at 500 g/ha (corn (Zea mays); post-emergence, Postemergence, 500 g ai/ha, scale 0 to 100): 0%
- Corn plant response rating (crop injury, 0 = no effect, 100 = complete kill) at 125 g/ha (corn (Zea mays); pre-emergence, Preemergence, 125 g ai/ha, scale 0 to 100 (0 no effect, 100 complete control)): 0%
- plant injury at 500 g/ha (corn (Zea mays); pre-emergence, Preemergence, 500 g ai/ha, scale 0 to 100 (0 no effect, 100 complete control), read-out: Corn plant response rating): 0%
- pest or weed control at 125 g/ha ([4]; post-emergence, Postemergence, scale 0 to 100 (0 no effect, 100 complete control), read-out: Crabgrass plant response rating): 0%
- pest or weed control at 500 g/ha ([4]; post-emergence, Postemergence, scale 0 to 100, read-out: Plant response rating, Crabgrass): 0%
- pest or weed control at 125 g/ha ([4]; pre-emergence, Preemergence, scale 0 to 100 (0 no effect, 100 complete control), read-out: Plant response rating, Crabgrass): 0%
- pest or weed control at 500 g/ha ([4]; pre-emergence, Preemergence, scale 0 to 100 (0 no effect, 100 complete control), read-out: Crabgrass plant response rating): 0%
- pest or weed control at 125 g/ha ([5]; post-emergence, Postemergence, scale 0 to 100 (0 no effect, 100 complete control), read-out: Foxtail, Giant plant response rating): 0%
- pest or weed control at 500 g/ha ([5]; post-emergence, Postemergence, scale 0 to 100, read-out: Plant response rating, Foxtail, Giant): 10%
- pest or weed control at 125 g/ha ([5]; pre-emergence, Preemergence, scale 0 to 100 (0 no effect, 100 complete control), read-out: Plant response rating, Foxtail, Giant): 0%
- pest or weed control at 500 g/ha ([5]; pre-emergence, Preemergence, scale 0 to 100 (0 no effect, 100 complete control), read-out: Foxtail, Giant plant response rating): 0%
- pest or weed control at 125 g/ha ([6]; post-emergence, Postemergence, scale 0 to 100 (0 no effect, 100 complete control), read-out: Lambsquarters plant response rating): 70%
- pest or weed control at 500 g/ha ([6]; post-emergence, Postemergence, scale 0 to 100, read-out: Plant response rating, Lambsquarters): 80%
- pest or weed control at 125 g/ha ([6]; pre-emergence, Preemergence, scale 0 to 100 (0 no effect, 100 complete control), read-out: Plant response rating, Lambsquarters): 0%
- pest or weed control at 500 g/ha ([6]; pre-emergence, Preemergence, scale 0 to 100 (0 no effect, 100 complete control), read-out: Lambsquarters plant response rating): 30%
- pest or weed control at 125 g/ha ([7]; post-emergence, Postemergence, scale 0 to 100 (0 no effect, 100 complete control), read-out: Morningglory plant response rating): 40%
- pest or weed control at 500 g/ha ([7]; post-emergence, Postemergence, scale 0 to 100, read-out: Plant response rating, Morningglory): 70%
- pest or weed control at 125 g/ha ([7]; pre-emergence, Preemergence, scale 0 to 100 (0 no effect, 100 complete control), read-out: Plant response rating, Morningglory): 0%
- pest or weed control at 500 g/ha ([7]; pre-emergence, Preemergence, scale 0 to 100 (0 no effect, 100 complete control), read-out: Morningglory plant response rating): 10%
- pest or weed control at 125 g/ha ([8]; post-emergence, Postemergence, scale 0 to 100 (0 no effect, 100 complete control), read-out: Pigweed plant response rating): 30%
- pest or weed control at 500 g/ha ([8]; post-emergence, Postemergence, scale 0 to 100, read-out: Plant response rating, Pigweed): 70%
- pest or weed control at 125 g/ha ([8]; pre-emergence, Preemergence, scale 0 to 100 (0 no effect, 100 complete control), read-out: Plant response rating, Pigweed): 0%
- pest or weed control at 500 g/ha ([8]; pre-emergence, Preemergence, scale 0 to 100 (0 no effect, 100 complete control), read-out: Pigweed plant response rating): 20%
- pest or weed control at 125 g/ha ([9]; post-emergence, Postemergence, scale 0 to 100 (0 no effect, 100 complete control), read-out: Velvetleaf plant response rating): 40%
- pest or weed control at 500 g/ha ([9]; post-emergence, Postemergence, scale 0 to 100, read-out: Plant response rating, Velvetleaf): 70%
- pest or weed control at 125 g/ha ([9]; pre-emergence, Preemergence, scale 0 to 100 (0 no effect, 100 complete control), read-out: Plant response rating, Velvetleaf): 0%
- pest or weed control at 500 g/ha ([9]; pre-emergence, Preemergence, scale 0 to 100 (0 no effect, 100 complete control), read-out: Velvetleaf plant response rating): 20%
- plant injury at 125 g/ha ([10]; post-emergence, Postemergence, scale 0 to 100 (0 no effect, 100 complete control), read-out: Wheat plant response rating): 0%
- plant injury at 500 g/ha ([10]; post-emergence, Postemergence, scale 0 to 100, read-out: Plant response rating, Wheat): 20%
- plant injury at 125 g/ha ([10]; pre-emergence, Preemergence, scale 0 to 100 (0 no effect, 100 complete control), read-out: Plant response rating, Wheat): 0%
- plant injury at 500 g/ha ([10]; pre-emergence, Preemergence, scale 0 to 100 (0 no effect, 100 complete control), read-out: Wheat plant response rating): 0%
- pest or weed control at 125 g/ha ([11]; 125 g ai/ha, scale 0 to 100 (0 no effect, 100 complete control), read-out: Blackgrass plant response rating): 0%
- pest or weed control at 500 g/ha ([11]; 500 g ai/ha, scale 0 to 100, read-out: Plant response rating, Blackgrass): 10%
- pest or weed control at 125 g/ha (wild oat (Avena fatua); 125 g ai/ha, scale 0 to 100 (0 no effect, 100 complete control), read-out: Oat, Wild plant response rating): 10%
- pest or weed control at 500 g/ha (wild oat (Avena fatua); 500 g ai/ha, scale 0 to 100, read-out: Plant response rating, Oat, Wild): 10%
- pest or weed control at 1000 g/ha [12]: 0%
- pest or weed control at 1000 g/ha [13]: 30%
- plant injury at 1000 g/ha (rice (Oryza sativa)): 0%
- pest or weed control at 1000 g/ha [14]: 0%
